This test deals with Rv0158 (Mycobacterium tuberculosis, UniProt O53641). The test is described as follows: biochemical.

Molecules are shown by their SMILES.

Rv0158, sequence (O53641 entry or part of it): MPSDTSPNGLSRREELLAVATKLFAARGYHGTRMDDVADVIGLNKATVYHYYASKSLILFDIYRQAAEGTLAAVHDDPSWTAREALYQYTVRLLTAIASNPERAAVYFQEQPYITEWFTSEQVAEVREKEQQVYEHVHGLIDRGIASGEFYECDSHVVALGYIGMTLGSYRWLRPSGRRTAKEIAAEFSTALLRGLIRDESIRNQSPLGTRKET

In general, Kd refers to a measure of binding affinity in units of concentration. For `CCCCCCCCCCCC(=O)SCCNC(=O)CCNC(=O)[C@H](O)C(C)(C)COP(=O)(O)OP(=O)(O)OC[C@H]1O[C@@H](n2cnc3c(N)ncnc32)[C@H](O)[C@@H]1OP(=O)(O)O` [C12-CoA], binding was put at a Kd of 1.1 ± 0.6 µM.

For `CCCCCCCCCCCCCCCC(=O)SCCNC(=O)CCNC(=O)[C@H](O)C(C)(C)COP(=O)(O)OP(=O)(O)OC[C@H]1O[C@@H](n2cnc3c(N)ncnc32)[C@H](O)[C@@H]1OP(=O)(O)O` [C16-CoA], the dissociation constant Kd was 1.8 ± 0.5 µM. `CCCCCCCCCCCCCCCCCC(=O)SCCNC(=O)CCNC(=O)[C@H](O)C(C)(C)COP(=O)(O)OP(=O)(O)OC[C@H]1O[C@@H](n2cnc3c(N)ncnc32)[C@H](O)[C@@H]1OP(=O)(O)O` [C18-CoA] yielded a Kd of 2.8 ± 0.8 µM. As for `CCCCCCCCCC(=O)SCCNC(=O)CCNC(=O)[C@H](O)C(C)(C)COP(=O)(O)OP(=O)(O)OC[C@H]1O[C@@H](n2cnc3c(N)ncnc32)[C@H](O)[C@@H]1OP(=O)(O)O` [Decanoyl-CoA], the Kd was 6.4 ± 1.2 µM. Against the preceding compound, the Kd is about 2.3-fold higher. Under `CC(C)(COP(=O)(O)OP(=O)(O)OC[C@H]1O[C@@H](n2cnc3c(N)ncnc32)[C@H](O)[C@@H]1OP(=O)(O)O)[C@@H](O)C(=O)NCCC(=O)NCCSC(=O)CC(=O)O` [Malonyl-CoA] stands 2.4 ± 1 µM; under `CC(C(=O)O)C(=O)SCCNC(=O)CCNC(=O)[C@H](O)C(C)(C)COP(=O)(O)OP(=O)(O)OC[C@H]1O[C@@H](n2cnc3c(N)ncnc32)[C@H](O)[C@@H]1OP(=O)(O)O` (stereo partly drawn) [Methylmalonyl-CoA], 0.9 ± 0.3 µM.

The values above are taken from publication PMC10501769 (eLife, 2023).
